Consider 33 compounds from patent US6750228B1, “Aromatic sulfone hydroxamic acid metalloprotease inhibitor” (priority 1997, dated 2004).

What all share (experiment): biochemical
For experiment [1], the target named is T1, MMP-2 (Homo sapiens, UniProt P08253).
T1 construct: made in house; provided by Dr. Gregory Goldberg, Washington University
T1 sequence (P08253 110-660): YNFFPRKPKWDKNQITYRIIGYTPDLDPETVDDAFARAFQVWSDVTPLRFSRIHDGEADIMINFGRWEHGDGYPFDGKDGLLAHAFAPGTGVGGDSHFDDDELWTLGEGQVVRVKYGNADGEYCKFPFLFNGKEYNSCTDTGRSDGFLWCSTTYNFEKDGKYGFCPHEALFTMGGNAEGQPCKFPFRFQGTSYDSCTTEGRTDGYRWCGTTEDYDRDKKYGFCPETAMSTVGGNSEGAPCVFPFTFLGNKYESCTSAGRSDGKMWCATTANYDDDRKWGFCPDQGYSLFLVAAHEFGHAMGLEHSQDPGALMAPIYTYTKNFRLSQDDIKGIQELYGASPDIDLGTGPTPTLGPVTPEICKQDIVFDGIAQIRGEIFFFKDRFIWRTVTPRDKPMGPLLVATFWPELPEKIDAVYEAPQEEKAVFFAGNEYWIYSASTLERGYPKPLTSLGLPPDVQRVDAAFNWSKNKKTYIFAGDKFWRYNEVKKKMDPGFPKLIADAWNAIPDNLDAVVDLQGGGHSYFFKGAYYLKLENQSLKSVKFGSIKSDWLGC
Put shortly:
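Assay buffer 100 mM Tris-HCl, 100 mM NaCl, 10 mM CaCl2, pH 7.5. Activated MMP + inhibitor, 5 min RT; then methoxycoumarin peptide substrate, 4 μM final. Readout fluorescence; IC50 calculated.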

Experiment [2] concerns the target T2, MMP-13 (Homo sapiens, UniProt P45452).
T2 construct: made in house; host or cells: baculovirus / insect cells
The conditions noted are these: read-out: MMP-13 IC50. Put shortly: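 APMA- or trypsin-activated enzymes were preincubated with inhibitor for 5 min at room temperature, then the fluorogenic substrate MCA-Pro-Leu-Gly-Leu-Dpa-Ala-Arg-NH2 was added to a final 4 μM.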

Experiment [3] addresses T3, MMP-1 (Homo sapiens, UniProt P03956).
T3 construct: made in house; host or cells: transfected HT-1080 cells (provided by Dr. Harold Welgus, Washington University)
T3 sequence (P03956 100-469): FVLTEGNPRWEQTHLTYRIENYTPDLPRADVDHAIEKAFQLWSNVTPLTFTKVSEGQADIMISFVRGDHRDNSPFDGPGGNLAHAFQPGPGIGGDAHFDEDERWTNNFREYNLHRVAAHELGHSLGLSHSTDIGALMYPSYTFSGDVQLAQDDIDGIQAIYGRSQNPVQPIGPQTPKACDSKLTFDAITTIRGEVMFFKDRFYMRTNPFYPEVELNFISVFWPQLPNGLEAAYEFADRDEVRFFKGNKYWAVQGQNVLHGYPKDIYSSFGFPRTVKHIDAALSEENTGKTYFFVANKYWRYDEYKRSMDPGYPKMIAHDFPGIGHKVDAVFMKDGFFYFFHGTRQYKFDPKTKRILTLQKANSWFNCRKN
Conditions: read-out: MMP-1 IC50. Put shortly:
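Substrate MCA-PLGL-Dpa-AR-NH2 at 4 μM final; pH 7.5 Tris/NaCl/CaCl2 buffer with 0.05% polyethyleneglycol lauryl ether, 1% DMSO, room temperature. MMP-1 was expressed in transfected HT-1080 cells and APMA-activated.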

The mark [4] stands for this setting: recombinant human MMP-2, MCA peptide substrate 4 μM, pH 7.5, room temperature, read-out: MMP-2 IC50.
[5] abbreviates: recombinant human MMP-13, MCA peptide substrate 4 μM, pH 7.5, room temperature.
The mark [6] stands for this setting: recombinant human MMP-1, MCA peptide substrate 4 μM, pH 7.5, room temperature.

The structures appear in SMILES notation. Read-outs that look alike come from different tables or passages of the source.

In the case of `O=C(NO)C1(S(=O)(=O)c2ccc(N3CCCC3)cc2)CCOCC1` [Example 81], the IC50 was 158 nM in experiment [1] (setting [4]), 60 nM in experiment [2] (setting [5]) and above 10000 nM in experiment [3] (setting [6]).
In the case of `O=C(NO)C1(S(=O)(=O)c2ccc(N3CCN(c4ccccc4F)CC3)cc2)CCOCC1` [Example 83], the values for the half-maximal inhibitory concentration (IC50) in experiment [1] (MMP-2 IC50 (nM)), in experiment [2] (setting [5]) and in experiment [3] (setting [6]) were 21.1 nM, 2.7 nM and 3100 nM, respectively.
In the case of `O=C(NO)C1(S(=O)(=O)c2ccc(N3CCN(c4ccc(F)cc4F)CC3)cc2)CCOCC1` [Example 87], the 50% inhibitory concentration (IC50) in experiment [1] (setting [4]) was 15.5 nM; in experiment [2] (setting [5]), 4 nM; in experiment [3] (setting [6]), above 10000 nM.
In the same order, the values of `O=C(NO)C1(S(=O)(=O)c2ccc(N3CCN(c4ccccc4Cl)CC3)cc2)CCOCC1` [Example 88] are 40 nM, 9 nM and above 10000 nM.
The like results for `O=C(c1ccccc1)N1CCC(C(=O)NO)(S(=O)(=O)c2ccc(Oc3ccc(OC(F)(F)F)cc3)cc2)CC1` [Example 91] were, in that order, below 0.1 nM, 0.3 nM and above 10000 nM.
In the same order, the values of `O=C(c1ccccc1)N1CCC(C(=O)NO)(S(=O)(=O)c2ccc(Oc3ccc(C(F)(F)F)cc3)cc2)CC1` [Example 92] are 0.1 nM, 0.8 nM and above 10000 nM.
In the case of `O=C(c1ccc(OC(F)(F)F)cc1)N1CCC(C(=O)NO)(S(=O)(=O)c2ccc(Oc3ccc(C(F)(F)F)cc3)cc2)CC1` [Example 140], the figures for the half-inhibitory concentration (IC50) in experiment [1] (setting [4]), in experiment [2] (setting [5]) and in experiment [3] (setting [6]) were 0.8 nM, 11.4 nM and above 10000 nM, respectively.
Regarding `O=C(Nc1ccc(C(F)(F)F)cc1)N1CCC(C(=O)NO)(S(=O)(=O)c2ccc(Oc3ccc(C(F)(F)F)cc3)cc2)CC1` [Example 141], the IC50 in experiment [1] (setting [4]) is 9 nM; in experiment [2] (setting [5]), 20 nM; in experiment [3] (setting [6]) it was above 10000 nM.
The like results for `O=C(NO)C1(S(=O)(=O)c2ccc(Oc3ccc(C(F)(F)F)cc3)cc2)CCN(S(=O)(=O)c2ccc(C(F)(F)F)cc2)CC1` [Example 143] were, in that order, 14.5 nM, 22 nM and above 10000 nM.
In the case of `COc1ccc(Oc2ccc(S(=O)(=O)C3(C(=O)NO)CCSCC3)cc2)cc1` [Example 146], the IC50 in experiment [1] (read-out: MMP-2 IC50) worked out at 0.3 nM; in experiment [2], 0.2 nM; in experiment [3] it was 3000 nM.
Consider `O=C(NO)C1(S(=O)(=O)c2ccc(Oc3ccc(OC(F)(F)F)cc3)cc2)CCSCC1` [Example 147], for which the results for the concentration for half-maximal inhibition (IC50) in experiment [1] (setting [4]), in experiment [2] (setting [5]) and in experiment [3] (setting [6]) were 0.2 nM, 0.4 nM and 7700 nM, respectively.
The like results for `CC(C)c1ccc(Oc2ccc(S(=O)(=O)C3(C(=O)NO)CCSCC3)cc2)cc1` [Example 148] were, in that order, 3.7 nM, 2.5 nM and above 10000 nM.
The like results for `O=C(NO)C1(S(=O)(=O)c2ccc(Oc3cccnc3)cc2)CCSCC1` [Example 149] were, in that order, 13.8 nM, 15.8 nM and 480 nM.
In the same order, the values of `O=C(NO)C1(S(=O)(=O)c2ccc(Oc3ccncc3)cc2)CCSCC1` [Example 151] are 290 nM, 270 nM and above 10000 nM.
For the compound `O=C(c1ccc(F)cc1)C1CCN(c2ccc(S(=O)(=O)C3(C(=O)NO)CCSCC3)cc2)CC1` [Example 152], the IC50 in experiment [1] (read-out: MMP-2 IC50) was 59 nM; in experiment [2], 2 nM; in experiment [3] it was above 10000 nM.
In the same order, the values of `COc1ccccc1C1CCN(c2ccc(S(=O)(=O)C3(C(=O)NO)CCSCC3)cc2)CC1` [Example 153] are 5000 nM, 50 nM and above 10000 nM.
`CN(CC1CC1)C(=O)C1CCN(c2ccc(S(=O)(=O)C3(C(=O)NO)CCSCC3)cc2)CC1` [Example 154]: the values for the IC50 in experiment [1] (setting [4]), in experiment [2] (setting [5]) and in experiment [3] (setting [6]) were 3700 nM, 18 nM and above 10000 nM, respectively.
As to `O=C(NO)C1(S(=O)(=O)c2ccc(N3CCCC3)cc2)CCSCC1` [Example 155], the figures for the IC50 in experiment [1] (setting [4]), in experiment [2] (setting [5]) and in experiment [3] (setting [6]) were 240 nM, 130 nM and above 10000 nM, respectively.
As to `COc1ccc(Oc2ccc(S(=O)(=O)C3(C(=O)NO)CCS(=O)(=O)CC3)cc2)cc1` [Example 156], the 50% inhibitory concentration (IC50) in experiment [1] (read-out: MMP-2 IC50) is 0.45 nM; in experiment [2], 2.2 nM; in experiment [3], above 10000 nM.
Regarding `O=C(NO)C1(S(=O)(=O)c2ccc(Oc3ccc(OC(F)(F)F)cc3)cc2)CCS(=O)(=O)CC1` [Example 157], the IC50 was 0.2 nM in experiment [1] (setting [4]), 0.5 nM in experiment [2] (setting [5]) and above 10000 nM in experiment [3] (setting [6]).
In the same order, the values of `O=C(NO)C1(S(=O)(=O)c2ccc(Oc3ccncc3)cc2)CCS(=O)(=O)CC1` [Example 160] are 90 nM, 300 nM and above 10000 nM.
Take `O=C(c1ccc(F)cc1)C1CCN(c2ccc(S(=O)(=O)C3(C(=O)NO)CCS(=O)(=O)CC3)cc2)CC1` [Example 161]: the IC50 in experiment [1] (read-out: MMP-2 IC50) is 900 nM; in experiment [2], 32.6 nM; in experiment [3], above 10000 nM.
In the same order, the values of `CC1CC(C)CN(C(=O)C2CCN(c3ccc(S(=O)(=O)C4(C(=O)NO)CCSCC4)cc3)CC2)C1` (stereo not drawn) [Example 162] are 7000 nM, 27.8 nM and above 10000 nM.
Consider `O=C(NO)C1(S(=O)(=O)c2ccc(N3CCC(OCc4ccc(F)cc4)CC3)cc2)CCOCC1` [Example 164], for which the IC50 in experiment [1] (setting [4]) is 440 nM; in experiment [2] (setting [5]), 3.5 nM; in experiment [3] (setting [6]), above 10000 nM.
The like results for `O=C(NO)C1(S(=O)(=O)c2ccc(N3CCC(OCc4ccccc4)CC3)cc2)CCOCC1` [Example 165] were, in that order, 48.5 nM, 3 nM and above 10000 nM.
The like results for `CCOC1CCN(c2ccc(S(=O)(=O)C3(C(=O)NO)CCOCC3)cc2)CC1` [Example 166] were, in that order, 240 nM, 32.7 nM and above 10000 nM.
The like results for `CCCOC1CCN(c2ccc(S(=O)(=O)C3(C(=O)NO)CCOCC3)cc2)CC1` [Example 168] were, in that order, 285 nM, 50 nM and above 10000 nM.
As to `O=C(NO)C1(S(=O)(=O)c2ccc(N3CCC(OCc4ccc(Cl)cc4)CC3)cc2)CCOCC1` [Example 170], the results for the half-maximal inhibitory concentration (IC50) in experiment [1] (setting [4]), in experiment [2] (setting [5]) and in experiment [3] (setting [6]) were 200 nM, 2.4 nM and above 10000 nM, respectively.
With `Cc1ccc(COC2CCN(c3ccc(S(=O)(=O)C4(C(=O)NO)CCOCC4)cc3)CC2)cc1` [Example 172], the IC50 in experiment [1] (setting [4]) is 160 nM; in experiment [2] (setting [5]), 3.8 nM; in experiment [3] (setting [6]) it was above 10000 nM.
Take `O=C(NO)C1(S(=O)(=O)c2ccc(N3CCC(OCc4cccc(OC(F)(F)F)c4)CC3)cc2)CCOCC1` [Example 173]: the 50% inhibitory concentration (IC50) in experiment [1] (setting [4]) was 330 nM; in experiment [2] (setting [5]), 6.7 nM; in experiment [3] (setting [6]), 3400 nM.
In the same order, the values of `O=C(NO)C1(S(=O)(=O)c2ccc(N3CCC(OCc4ccccc4C(F)(F)F)CC3)cc2)CCOCC1` [Example 174] are 800 nM, 23.5 nM and above 10000 nM.
In the same order, the values of `O=C(NO)C1(S(=O)(=O)c2ccc(N3CCC(OCc4ccc(OC(F)(F)F)cc4)CC3)cc2)CCOCC1` [Example 175] are 290 nM, 2.5 nM and above 10000 nM.
In the same order, the values of `O=C(NO)C1(S(=O)(=O)c2ccc(N3CCC(OCc4ccc(Cl)c(Cl)c4)CC3)cc2)CCOCC1` [Example 176] are 250 nM, 4 nM and above 10000 nM.

As a reminder, the IC50 is the point on the concentration scale where inhibition reaches its midpoint.
